Experimental data reported in patent US11666578B2, “Small molecule inhibitors of CDK12/CDK13” (The Scripps Research Institute, priority 2018, dated 2023).
≈ marks a conversion by molar mass, not a printed value.

Columns and labels:
[1] = Solubility in pH 7.4 phosphate buffered saline; format: physicochemical; details: aqueous buffer
[2] = Microsome stability, rat liver microsomes; format: in vitro ADME; details: read-out: Microsome stability t1/2 (R)
CYP 1A2 = target: T1, CYP 1A2 (Homo sapiens, UniProt P05177); experiment: Cytochrome P450 inhibition assay, 1A2; format: in vitro ADME
T1 sequence (P05177 1-516): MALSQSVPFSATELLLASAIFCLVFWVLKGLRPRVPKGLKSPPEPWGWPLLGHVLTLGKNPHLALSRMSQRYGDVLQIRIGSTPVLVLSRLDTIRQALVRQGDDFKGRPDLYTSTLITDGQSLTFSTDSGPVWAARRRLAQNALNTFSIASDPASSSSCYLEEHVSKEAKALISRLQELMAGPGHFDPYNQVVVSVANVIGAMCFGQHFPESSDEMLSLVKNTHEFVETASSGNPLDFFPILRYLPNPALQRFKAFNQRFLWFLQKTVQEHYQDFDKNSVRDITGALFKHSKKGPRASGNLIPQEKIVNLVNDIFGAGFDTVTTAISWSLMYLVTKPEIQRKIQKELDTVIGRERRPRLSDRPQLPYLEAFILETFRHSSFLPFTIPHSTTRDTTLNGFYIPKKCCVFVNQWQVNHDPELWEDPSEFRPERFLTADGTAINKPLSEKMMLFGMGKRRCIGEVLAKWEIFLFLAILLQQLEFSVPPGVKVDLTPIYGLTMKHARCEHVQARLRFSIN

BCM-3613 tumors = experiment: PDX efficacy study, BCM-3613 orthotopic tumors; format: in vivo, SCID/Beige mice
Protocol: Studies were performed to determine the efficacy of the highly specific dual CDK12/CDK13 or single CDK13 inhibitors in pre-clinical models of human breast cancer. Four patient derived orthotopic breast xenograft models were used to validate targeting CDK12/13 or CDK13 alone as an anti-cancer strategy in subsets of breast cancer. […] Experiments therefore included 7-12 tumor bearing mice per experimental or control (vehicle) cohort with mice randomized prior to treatment to determine random sampling such that the median tumor size between cohorts was the same. All tumors sizes were measured throughout the duration of the experiment and graphed in figures without excluding any samples. For survival analyses, mice were euthanized when moribund, and/or when tumors became ulcerated or reached greater than 1.0 cm^3. All cell-based assays were performed in triplicate and repeated at least 3 times.
Briefly, fresh xenograft tumor fragments (˜1 mm^3) were transplanted into the cleared mammary fat pad of recipient SCID/Bg mice (Charles River Laboratories). Tumor growth was measured in two dimensions using calipers and tumor volume calculated (v=0.5×length×width^2). […] Growth rates were monitored at indicated times and tumors were harvested for histopathology and lysate preparation for western blotting once vehicle treated tumors reached 0.8-1 cm^3.

Cn1cc(-n2cnc3c(NCc4nc5cc(Cl)c(Cl)cc5[nH]4)nc(N4CCOCC4)nc32)cn1 [Compound 5, N-((5,6-dichloro-1H-benzo[d]imidazol-2-yl)methyl)-9-(1-methyl-1H-pyrazol-4-yl)-2-morpholino-9H-purin-6-amine]
solubility [1]: 0.3 µM (≈ 0.15 µg/mL)
half-life [2]: 16 min
CYP inhibition 1A2 (CYP 1A2): 50 % inh
Tumor growth, combination with trastuzumab (BCM-3613 tumors; BCM-3613 PDX, compound 5 and trastuzumab, p=0.01): sensitized these tumor to trastuzumab
Tumor growth, single agent (BCM-3613 tumors; BCM-3613 trastuzumab-resistant PDX, vs vehicle): significantly delayed tumor growth
